Where two headings read alike, the source gives them in different places.
Key:
P. berghei liver stages = assay: In vitro activity against the liver stage of Plasmodium infection (luciferase assay in Huh7 cells); format: cell-based, Plasmodium berghei; details: for anti-Plasmodium activity (in words): P. berghei liver stages in Huh7 cells
Experimental: FIG. 6: Compound activity against P. berghei liver stages. Anti-Plasmodial activity (infection axis, bars) and toxicity to hepatoma cells (cell confluency axis, circles) are shown. Infection loads of Huh7 cells, a human hepatoma cell line, were determined by bioluminescence measurements of cell lysates 48 h after infection with luciferase-expressing P. berghei parasites. Luciferase assay in 96 well-plate; 10 000 Huh7 cells/well+10 000 PbA-LuciGFPcon spz/well.
In an embodiment, the in vitro activity against the liver stage of Plasmodium infection was also carried out: inhibition of liver stage Plasmodium infection by test compounds was determined by measuring the luminescence intensity in Huh-7 cells infected with a firefly luciferase-expressing P. berghei line, as previously described. Briefly, Huh-7 cells, a human hepatoma cell line, were cultured in 1640 RPMI medium supplemented with 10% v/v fetal bovine serum, 1% v/v nonessential amino acids, 1% v/v penicillin/streptomycin, 1% v/v glutamine, and 10 mM 4-(2-hydroxyethyl)-1-piperazineethanesulfonic acid (HEPES), pH 7, and maintained at 37° C. with 5% CO2. For infection assays, Huh-7 cells (1.0×10^4 per well) were seeded in 96-well plates the day before drug treatment and infection. The medium was replaced by medium containing the appropriate concentration of each compound approximately 1 h prior to infection with sporozoites freshly obtained through disruption of salivary glands of infected female Anopheles stephensi mosquitoes. Sporozoite addition was followed by centrifugation at 1700×g for 5 min. Parasite infection load was measured 48 h after infection by a bioluminescence assay (Biotium). The effect of the compounds on the viability of Huh-7 cells was assessed by the AlamarBlue assay (Invitrogen, U.K.) using the manufacturer's protocol.

HIV-1 = details: for IC50 / IC90: TZM-bl cells
Experimental: In an embodiment, TZM-bl cells (AIDS Research and Reference Reagent Program, National Institutes of Health, USA) were cultured in complete growth medium that consists of Dulbecco's minimal essential medium (DMEM) supplemented with 10% fetal bovine serum (FBS), 100 U/ml of penicillin-streptomycin (Gibco/Invitrogen, USA), 1 mM of sodium pyruvate (Gibco/Invitrogen, USA), 2 mM of L-glutamine (Gibco/Invitrogen, USA) and 1 mM of non-essential amino acids (Gibco/Invitrogen, USA).
In an embodiment, the primary isolates 93AOHDC249, 93AOHDC250, 01PTHDECJN and 03PTHCC9, used in this study were previously isolated, titrated and characterized for co-receptor usage. HIV reference strain SG3.1 was obtained by transfection of HEK293T cells with pSG3.1 (HIV-1) plasmid using Fugene 6 reagent (Roche, Switzerland) according to manufacturer's instructions.
In an embodiment, the 50% tissue culture infectious dose (TCID50) of the virus was determined in a single-round viral infectivity assay using a luciferase reporter gene assay in TZM-bl cells and calculated using the statistical method of Reed and Muench^27.
In an embodiment, the antiviral activity of the compounds was determined in a single-round assay with TZM-bl cells as previously described ^26. Cells were infected with 200 TCID50 of virus in the presence of serial fold dilutions of the BSS compounds in GM, supplemented with DEAE-dextran (19.7 μg/ml). After 48 h of infection, luciferase expression was quantified with the One-Glow luciferase assay substrate reagent (Promega, USA) according to manufacturer's instructions. Briefly, a volume of reagent equal to that of the culture medium in each well was added. For 96-well plates, typically 100 μl of reagent is added to the cells grown in 100 μl of medium. After an incubation of 3 minutes at room temperature to allow complete cell lysis luminescence was measured in Tecan Infinite M200. Background luminescence was measured by using control wells that contained only target cells and GM. Maraviroc (CCR5 antagonist), T1249 (fusion inhibitor) and AMD3100 (CXCR4 antagonist) were used as positive controls of the antiviral activity. At least two independent experiments were performed for each analysis and each assay was set up in triplicate wells.
In an embodiment, dose-response curves were estimated from the percentage of inhibition of infection (y-axis) against logo of concentration of each compound (x-axis) using the sigmoidal dose-response equation (variable slope) in GraphPad Prism version 5.00 for Windows (GraphPad Software, San Diego Calif. USA, www.graphpad.com). IC50 and IC90 values were determined from this curve. IC50 and IC90 values correspond to the concentration of compound that inhibits viral replication in 50% and 90%, respectively.

[1] = 01PTHDECJN, CCR5 tropic HIV-1 primary isolate
[2] = SG3.1, CXCR4 tropic HIV-1 adapted isolate
[3] = 93AOHDC249, CCR5 tropic HIV-1 primary isolate
[4] = 93AOHDC250, HIV-1 primary isolate

SMILES | anti-Plasmodium activity (in words) (P. berghei liver stages) | anti-HIV activity against HIV-1 (in words) (HIV-1) | MPI (maximum percentage of inhibition) (HIV-1; [1]) [%] | TI (in vitro therapeutic index, CC50/IC50) (HIV-1; [1]) | IC50 (HIV-1; [1]) [nM] | MPI (maximum percentage of inhibition) (HIV-1; [2]) [%] | TI (in vitro therapeutic index, CC50/IC50) (HIV-1; [2]) | IC50 (HIV-1; [2]) [nM] | IC50 (P. berghei liver stages; luciferase-expressing P. berghei in Huh7 cells, 48 h after infection) [nM] | MPI (maximum percentage of inhibition) (HIV-1; [3]) [%] | TI (in vitro therapeutic index, CC50/IC50) (HIV-1; [3]) | IC50 (HIV-1; [3]) [nM] | IC90 (HIV-1; [3]) [nM] | MPI (maximum percentage of inhibition) (HIV-1; [4]) [%] | TI (in vitro therapeutic index, CC50/IC50) (HIV-1; [4]) | IC50 (HIV-1; [4]) [nM] | IC90 (HIV-1; [4]) [nM] | inhibition (HIV-1; HIV-1, concentration of 15.21 μM) | IC90 (HIV-1; [2]) [nM]
COC(=O)C1=C[C@@]2(N=N1)C(=O)N1[C@@H](C(=O)O)C(C)(C)S[C@@H]12 [BSS-593, (2,3′R,5R)-5′-(methoxycarbonyl)-3,3-dimethyl-7-oxo-4-thia-1-azaspiro[bicyclo[3.2.0]heptane-6,3′-pyrazole]-2-carboxylic acid] | presented activity | only active against HIV-1 | 58 | 4553.31 | 35 | 84 | 13144.76 | 12 |  |  |  |  |  |  |  |  |  |  | 
CC1(C)S[C@H]2N(C(=O)[C@]23CC=C(C(=O)OCc2ccccc2)[C@@H]3C(=O)c2ccccc2)[C@H]1C(=O)OC(c1ccccc1)c1ccccc1 [BSS-730A] | presented activity | potent activity |  |  |  | 99 | 5584.30 | 14 | 550 | 99 | 2946.32 | 26 | 118 | 94 | 20247.69 | 4 | 19.7 | about 100% | 25.2

From patent US11666559B2, “Spiro-lactam compounds, process and uses thereof” (UNIVERSIDADE DE COIMBRA, priority 2017, dated 2023)
